Experimental data published in patent US20120064008A1, “COMPOSITIONS FOR THE TREATMENT OF METASTATIC CANCER AND METHODS OF USE THEREOF” (priority 2009, published 2012).
Entries after “also recorded” stand apart in the source; their conditions may differ.

Experiments:
AT6.1 lung metastases = assay: Ki-67 and caspase-3 staining of lung tumor sections; type: in vivo, mice; conditions: 50 mg/kg, combination carrier; FIG. 10
Experimental: To investigate whether benzimidazoles treatment affects cell proliferation and apoptosis in vivo, immunohistochemical analysis of the cell proliferation marker, Ki-67 and of the apoptotic marker, activated caspase-3 was performed on mouse lung sections from each group.
Tumor cells in the lungs of rats treated with saline and 50 mg/kg fenbendazole (formulation in the combination carrier) were analyzed by Ki-67 and caspase-3 antibody staining. Tissues were collected and fixed in formalin before processed for paraffin embedding. Tissue sections were then processed for Ki-67 and caspase-3 antibody staining, using the protocol established at Dana Farber Cancer Institute/Harvard Cancer Center Research Pathology Core. At least five random 200× magnification images were photographed from each animal. Distinct and strong nuclear Ki67 staining of tumor cells were counted using Image J software (NIH, Bethesda, […].).

lung metastases = assay: Lung metastasis model, survival; type: in vivo, mice
Experimental: In the lung metastasis model, treatment was initiated 10 days after the animals were inoculated with tumor cells. At this time, the lungs were riddled with metastases. Formulations containing a benzimidazole were injected into the peritoneum three times per week. Half of the control mice died by day 27, only 17 days after the animals started receiving treatments. In contrast, half of the mice treated with fenbendazole were still alive on day 37 and one-third were still alive at day 45.

PC-3MLN4 cells = assay: Normalized mitotic index (histone H3 phospho-Serine-28), PC-3MLN4; type: cell-based; conditions: Homo sapiens, read-out: Normalized mitotic index PC-3MLN4, at 1 μM; normalized against vehicle-treated cells
Excerpt: The mitotic index for each agent was normalized against those obtained from vehicle-treated cells, and compared with the activity of paclitaxel, a known inducer of mitotic arrest.

Row | Structure (SMILES) | tumor cell proliferation (Ki67 staining) compared to control (AT6.1 lung metastases) | fraction of mice still alive at day 45 (lung metastases; i.p. three times per week from day 10 after inoculation) | day on which half of the mice were still alive (lung metastases; i.p. three times per week from day 10 after inoculation (half of control mice died by day 27)) | prolonging the survival times compared with taxol (lung metastases; mouse, in vivo) | fold induction at 1 µM (PC-3MLN4 cells)
1 | COC(=O)Nc1nc2ccc(Sc3ccccc3)cc2[nH]1 [Fenbendazole, fenbendazole] | less proliferation of tumor cells; also recorded: marked reduction in tumor cell proliferation | one-third | 37 days | equivalent to taxol | 
2 | CCCSc1ccc2nc(NC(=O)OC)[nH]c2c1 [Albendazole, albendazole] |  |  |  |  | 1.8 to 2
